Laboratory results: patent US20260008783A1, “MODULATORS OF FSHR AND USES THEREOF” (Celmatix Inc., priority 2022, published 2026)

These compounds were tested against T1, Follicle Stimulating Hormone Receptor (FSHR) (Homo sapiens, UniProt P23945) (assay: HTRF cAMP agonist assay, FSHR, transiently transfected CHO-K1 cells). Settings: CHO-K1 cells transiently expressing human FSHR, read-out: IC50 FSHR LANCE CAMP.
T1 construct: HA (N); expressed in transfected cells; host or cells: CHO-K1, transient transfection, pHM6 vector (CMV promoter)
T1 sequence (P23945 18-695): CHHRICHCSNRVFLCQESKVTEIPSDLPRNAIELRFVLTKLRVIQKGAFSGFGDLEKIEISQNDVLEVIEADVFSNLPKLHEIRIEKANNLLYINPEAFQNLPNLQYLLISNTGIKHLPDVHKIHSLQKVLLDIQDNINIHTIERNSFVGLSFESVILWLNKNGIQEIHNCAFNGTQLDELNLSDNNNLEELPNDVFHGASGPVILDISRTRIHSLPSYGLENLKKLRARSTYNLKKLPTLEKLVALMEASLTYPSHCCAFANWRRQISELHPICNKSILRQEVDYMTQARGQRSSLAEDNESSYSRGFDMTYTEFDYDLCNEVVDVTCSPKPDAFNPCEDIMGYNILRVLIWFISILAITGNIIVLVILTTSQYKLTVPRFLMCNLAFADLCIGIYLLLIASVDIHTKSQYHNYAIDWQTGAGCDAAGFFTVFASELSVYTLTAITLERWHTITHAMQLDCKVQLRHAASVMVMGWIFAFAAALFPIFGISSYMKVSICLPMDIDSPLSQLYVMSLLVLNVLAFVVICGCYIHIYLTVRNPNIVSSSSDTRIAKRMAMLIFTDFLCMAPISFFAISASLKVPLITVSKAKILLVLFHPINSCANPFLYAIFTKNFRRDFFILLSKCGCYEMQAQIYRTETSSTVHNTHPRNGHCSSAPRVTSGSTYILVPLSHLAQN
Format: cell-based
Description: Example 17. HTRF cAMP Agonist Assay Protocol (for FSHR, TSHR, LHCGR)
Mammalian expression vectors designed to express either Follicle Stimulating Hormone Receptor (FSHR), Thyroid Stimulating Hormone Receptor (TSHR), or Luteinizing Hormone/Choriogonadotropin Receptor (LHCGR), were generated with an HA-tag on the N-terminus. All constructs were expressed under a human cytomegalovirus (CMV) immediate early enhancer and promoter using the pHM6 expression vector. The protein coding region was confirmed by sequence analysis to be in-frame and of the expected sequence, matching the following accession numbers: FSHR NM_000145, TSHR NM_000369, and LHCGR NM_000233.
HTRF cAMP assays were performed using Chinese Hamster Ovary (CHO-K1) cell lines transiently expressing human FSH, TSH, and LHCG receptors. 48 hours before the assay, cells were washed with PBS and then dissociated from tissue culture flasks with 0.25% trypsin. Dissociated cells were quenched in full media (F-12K Medium Corning REF #10-025-CV, 10% Avantor Seradigm FB Essence Cat #10803-034, 1% Penicillin/Streptomycin Cytiva HyClone Cat #SV30010) and then collected by centrifugation at 290×g for 5 min. Cells were resuspended in full media and dispensed into 150 mm cell culture dishes (Nest Scientific Cat #715001), at 2.3×10^6 cells/flask. 7 hours later, cells were transfected using Lipofectamine transfection reagent (Invitrogen Cat #18324020). Briefly, 60 μL of lipofectamine was dispensed into 2 mL of Opti-MEM (Gibco Cat #31985070) and incubated for 5 minutes at room temperature. Then, the mixture was added onto […] of DNA and incubated for another 20 minutes at room temperature. Cells were washed with warm (37° C.) PBS. 17.5 mL of Opti-MEM was dispensed onto the cells, followed by addition of the Opti-MEM/lipofectamine/DNA mixture. Cells were incubated overnight in a 37° C., 5% CO2 cell incubator. 17-19 hours later, Opti-MEM was aspirated off the cells and replaced with full media. Cells were incubated for another 24 hours in a 37° C., 5% CO2 cell incubator.
On the day of the assay, cells were washed with PBS and then dissociated from tissue culture flasks with 0.25% trypsin. Dissociated cells were quenched in full media and then collected by centrifugation at 290×g for 5 min. Cells were resuspended in PBS^+/+ (Corning REF #20-030-CV) to a concentration of 2×10^5 cells/mL. 10 μL/well of cells (2,000 cells/well) were dispensed into 384-well Corning plates (REF #3825), in triplicate. Cells were incubated at room temperature for 2 hours.
Example FSHR Modulator compounds were diluted in assay buffer (PBS^+/+, 0.05% BSA Sigma-Aldrich A3059, 500 μM IBMX Sigma-Aldrich 15879) to 3.5× the final assay concentration. 4 μL of test agonist was added to the cells and incubated for 1 hour at room temperature. 10 μL of cAMP detection reagents (LANCE Ultra cAMP Detection Kit PerkinElmer TRF0264) were dispensed onto the cells and plates were incubated for 2 hours at room temperature (cAMP detection reagents were made according to the PerkinElmer kit protocol). Plates were read on an Envision plate reader following PerkinElmer guidelines.
Raw data for all assays was transmitted directly from plate readers into a database for processing. All assay plates contained both positive and negative control wells to allow for data normalization and scaling. In agonist assays, negative control wells contained assay buffer and positive control wells contained […] positive control (10 nM Follicle Stimulating Hormone Sigma-Aldrich F4021, 50 nM Thyroid Stimulating Hormone Sigma-Aldrich 869006, 50 nM Luteinizing Hormone MyBioSource MBS5308806, for their respective receptors). All control wells contained DMSO at a final assay concentration that matched the test compound wells. […]
Percent control data were analyzed by non-linear regression with a sigmoidal dose response algorithm in the database to yield potency and efficacy data.

| Compound | IC50 [nM] |
| --- | --- |
| COc1cc2c(cc1-c1cncc(C(N)=O)c1)-c1c(c(C(=O)N3CCCNCC3(C)C)nn1-c1cc(Cl)cc(Cl)c1)CC2 [Compound 8-04, 5-[1-(3,5-dichlorophenyl)-3-(2,2-dimethyl-1,4-diazepane-1-carbonyl)-7-methoxy-4,5-dihydrobenzo[g]indazol-8-yl]pyridine-3-carboxamide] | 28.3 |
| COc1cc2c(cc1-c1cncc(C(N)=O)c1)-c1c(c(C(=O)N3CCC(=O)NCC3(C)C)nn1-c1cc(Cl)cc(Cl)c1)CC2 [Compound 8-04A, 5-[1-(3,5-dichlorophenyl)-3-(2,2-dimethyl-5-oxo-1,4-diazepane-1-carbonyl)-7-methoxy-4,5-dihydrobenzo[g]indazol-8-yl]pyridine-3-carboxamide] | 9.79 |
| COc1cc2c(cc1-c1cncc(C(N)=O)c1)-c1c(c(C(=O)N3CCN(C)CC3C)nn1-c1cc(Cl)cc(Cl)c1)CC2 (centres unmarked) [Compound 8-05, 5-[1-(3,5-dichlorophenyl)-3-(2,4-dimethylpiperazine-1-carbonyl)-7-methoxy-4,5-dihydrobenzo[g]indazol-8-yl]pyridine-3-carboxamide] | 60.3 |
| COc1cc2c(cc1-c1cncc(C(N)=O)c1)-c1c(c(C(=O)N3CCN(C)CC3(C)C)nn1-c1cc(Cl)cc(Cl)c1)CC2 [Compound 8-06] | 17.6 |
| COc1cc2c(cc1-c1cncc(C(N)=O)c1)-c1c(c(C(=O)N3CCCN(C)CC3)nn1-c1cc(Cl)cc(Cl)c1)CC2 [Compound 8-07, 5-[1-(3,5-dichlorophenyl)-7-methoxy-3-(4-methyl-1,4-diazepane-1-carbonyl)-4,5-dihydrobenzo[g]indazol-8-yl]pyridine-3-carboxamide] | 115 |
| COc1cc2c(cc1-c1cncc(C#N)c1)-c1c(c(C(=O)N3CCCN(C)CC3)nn1-c1cc(Cl)cc(Cl)c1)CC2 [Compound 8-07A, 5-(1-(3,5-dichlorophenyl)-7-methoxy-3-(4-methyl-1,4-diazepane-1-carbonyl)-4,5-dihydro-1H-benzo[g]indazol-8-yl)nicotinonitrile] | 3040 |
| COc1cc2c(cc1-c1cncc(C(N)=O)c1)-c1c(c(C(=O)N3CCN(C#N)CC3C)nn1-c1cc(Cl)cc(Cl)c1)CC2 (centres unmarked) [Compound 8-09, 5-[3-(4-cyano-2-methyl-piperazine-1-carbonyl)-1-(3,5-dichlorophenyl)-7-methoxy-4,5-dihydrobenzo[g]indazol-8-yl]pyridine-3-carboxamide] | 4.44 |
| COc1cc2c(cc1-c1cncc(C(N)=O)c1)-c1c(c(C(=O)N(C)C(C)(C)CO)nn1-c1cc(Cl)cc(Cl)c1)CC2 [Compound 8-10] | 991 |
| COc1cc2c(cc1-c1cncc(C(N)=O)c1)-c1c(c(C(=O)N3CCC(S(C)(=O)=O)CC3C)nn1-c1cc(Cl)cc(Cl)c1)CC2 (centres unmarked) [Compound 8-13, 5-[1-(3,5-dichlorophenyl)-7-methoxy-3-(2-methyl-4-methylsulfonyl-piperidine-1-carbonyl)-4,5-dihydrobenzo[g]indazol-8-yl]pyridine-3-carboxamide] | 244 |
| COc1cc2c(cc1-c1cncc(C(N)=O)c1)-c1c(c(C(=O)N3CCCC3(C)C)nn1-c1cc(Cl)cc(Cl)c1)CC2 [Compound 8-14] | 3.47 |
| COc1cc2c(cc1-c1cncc(C(N)=O)c1)-c1c(c(C(=O)N3C4CCC3CN(C)C4)nn1-c1cc(Cl)cc(Cl)c1)CC2 [Compound 8-15] | 33.2 |
| COc1cc2c(cc1-c1cncc(C(N)=O)c1)-c1c(c(C(=O)N3C4CC3CN(C(=O)OC(C)(C)C)C4)nn1-c1cc(Cl)cc(Cl)c1)CC2 [Compound 8-16A] | 79.3 |
| COc1cc2c(cc1-c1cncc(C(N)=O)c1)-c1c(c(C(=O)N3C4CNCC3C4)nn1-c1cc(Cl)cc(Cl)c1)CC2 [Compound 8-16B] | 769 |
| COc1cc2c(cc1-c1cncc(C(N)=O)c1)-c1c(c(C(=O)N3C4CC3CN(C)C4)nn1-c1cc(Cl)cc(Cl)c1)CC2 [Compound 8-16] | 70.4 |
| COc1cc2c(cc1-c1cncc(C(N)=O)c1)-c1c(c(C(=O)N3CC4CCC3CN4C)nn1-c1cc(Cl)cc(Cl)c1)CC2 (centres unmarked) [Compound 8-17] | 115 |
| COc1cc2c(cc1-c1cncc(C(N)=O)c1)-c1c(c(C(=O)N3[C@@H]4CC[C@H]3CN(C)C4)nn1-c1cc(Cl)cc(Cl)c1)CC2 [Compound 8-18] | 18 |
| COc1cc2c(cc1-c1cncc(C(N)=O)c1)-c1c(c(C(=O)N3[C@H](C)CNC[C@@H]3C)nn1-c1cc(Cl)cc(Cl)c1)CC2 [Compound 8-21] | 5.38 |
| COc1cc2c(cc1-c1cncc(C(N)=O)c1)-c1c(c(C(=O)N3[C@@H](C)CNC[C@@H]3C)nn1-c1cc(Cl)cc(Cl)c1)CC2 [Compound 8-22] | 34.9 |
| COc1cc2c(cc1-c1cncc(C(N)=O)c1)-c1c(c(C(=O)N3CCC4CNCCC43)nn1-c1cc(Cl)cc(Cl)c1)CC2 (centres unmarked) [Compound 8-23, 5-[3-(2,3,3a,4,5,6,7,7a-octahydropyrrolo[3,2-c]pyridine-1-carbonyl)-1-(3,5-dichlorophenyl)-7-methoxy-4,5-dihydrobenzo[g]indazol-8-yl]pyridine-3-carboxamide] | 457 |
| COc1cc2c(cc1-c1cncc(C(N)=O)c1)-c1c(c(C(=O)N3CCC4CN(C(=O)OC(C)(C)C)CCC43)nn1-c1cc(Cl)cc(Cl)c1)CC2 (centres unmarked) [Compound 8-23A, tert-butyl 1-[8-(5-carbamoyl-3-pyridyl)-1-(3,5-dichlorophenyl)-7-methoxy-4,5-dihydrobenzo[g]indazole-3-carbonyl]-3,3a,4,6,7,7a-hexahydro-2H-pyrrolo[3,2-c]pyridine-5-carboxylate] | 928 |
| COc1cc2c(cc1-c1cncc(C(N)=O)c1)-c1c(c(C(=O)N3CC4CCC3CN4)nn1-c1cc(Cl)cc(Cl)c1)CC2 (centres unmarked) [Compound 8-24] | 524 |
| COc1cc2c(cc1-c1cncc(C(N)=O)c1)-c1c(c(C(=O)N3CCNC[C@H]3C(C)C)nn1-c1cc(Cl)cc(Cl)c1)CC2 [Compound 8-25] | 71.8 |
| COc1cc2c(cc1-c1cncc(C#N)c1)-c1c(c(C(=O)N3CCNC(=O)C3(C)C)nn1-c1cc(Cl)cc(Cl)c1)CC2 [Compound 8-26A] | 10.3 |
| COc1cc2c(cc1-c1cncc(C(N)=O)c1)-c1c(c(C(=O)N3CCNC(=O)C3(C)C)nn1-c1cc(Cl)cc(Cl)c1)CC2 [Compound 8-26] | 16.3 |
| COc1cc2c(cc1-c1cncc(C(N)=O)c1)-c1c(c(C(=O)N3CCNC(=O)C3(C)C)nn1-c1cc(Cl)cc(Cl)c1)CC2 [Compound 8-26b] | 20.3 |
| COc1cc2c(cc1-c1cncc(C(N)=O)c1)-c1c(c(C(=O)N3CCCC34COC4)nn1-c1cc(Cl)cc(Cl)c1)CC2 [Compound 8-27] | 30 |
